# Test results: patent US11873298B2, “Compounds and uses thereof” (JANSSEN PHARMACEUTICA NV, priority 2017, dated 2024)
# Experiments:
# SCD1 = target: T1, SCD1 (Homo sapiens, UniProt O00767); test: Growth inhibition of humanized yeast strain expressing SCD1 as sole desaturase; format: cell-based
# T1 construct: host or cells: S. cerevisiae ole1Δ strain (W303 pdr1Δ pdr3Δ background), plasmid pRS316 with TDH3 promoter and CYC1 terminator
# T1 sequence (O00767 1-359): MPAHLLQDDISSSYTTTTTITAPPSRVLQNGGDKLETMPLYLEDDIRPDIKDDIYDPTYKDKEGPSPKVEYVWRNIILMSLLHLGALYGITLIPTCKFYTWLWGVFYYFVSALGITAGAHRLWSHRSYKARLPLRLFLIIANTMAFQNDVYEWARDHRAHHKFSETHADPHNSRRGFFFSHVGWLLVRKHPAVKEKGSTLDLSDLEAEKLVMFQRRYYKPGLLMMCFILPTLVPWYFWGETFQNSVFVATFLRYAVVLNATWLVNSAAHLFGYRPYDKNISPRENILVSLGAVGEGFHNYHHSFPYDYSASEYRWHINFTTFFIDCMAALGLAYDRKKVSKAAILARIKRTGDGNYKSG
# In short: (§1)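 Yeast ole1Δ strain (W303 pdr1Δ pdr3Δ background) carrying plasmid-borne Ole1, SCD1 or SCD5 as sole desaturase was grown in uracil-lacking media, pre-cultured in raffinose for 6 h, then seeded in galactose medium with compound in DMSO. Growth was read as OD600 after 30° C. incubation: 24 h for Ole1, 40 h for SCD1/SCD5.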
# SCD5 = target: T2, SCD5 (Homo sapiens, UniProt Q86SK9); test: Growth inhibition of humanized yeast strain expressing SCD5 as sole desaturase; format: cell-based
# T2 construct: host or cells: S. cerevisiae ole1Δ strain (W303 pdr1Δ pdr3Δ background), plasmid pRS316 with TDH3 promoter and CYC1 terminator
# T2 sequence (Q86SK9 1-330): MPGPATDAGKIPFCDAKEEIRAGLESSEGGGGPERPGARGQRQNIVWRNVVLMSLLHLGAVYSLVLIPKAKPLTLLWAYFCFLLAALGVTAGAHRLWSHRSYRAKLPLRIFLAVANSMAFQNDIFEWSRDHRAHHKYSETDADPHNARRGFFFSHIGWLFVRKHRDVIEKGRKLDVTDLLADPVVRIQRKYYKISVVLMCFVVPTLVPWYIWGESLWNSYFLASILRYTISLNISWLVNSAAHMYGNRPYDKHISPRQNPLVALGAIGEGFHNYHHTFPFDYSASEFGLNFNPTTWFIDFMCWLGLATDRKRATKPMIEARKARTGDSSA
# In short: as §1
# [1] = growth inhibition of humanized yeast strain expressing human SCD1
# [2] = growth inhibition of humanized yeast strain expressing human SCD5
# [3] = humanized yeast strain expressing SCD1
# [4] = humanized yeast strain expressing SCD5
Structure (SMILES),"IC50 (SCD1; humanized yeast strain, 40 h)","IC50 (SCD5; humanized yeast strain, 40 h)",further results
COC(=O)N1CCC(c2nc(-c3ccnc(C(O)C(C)C)c3)no2)CC1 (centres unmarked) [Compound 856],> 45 µM,> 45 µM,–
O=C(OC1CC1)N1CCC(c2noc(-c3cc(F)c4cnn(C5COC5)c4c3)n2)CC1 [Compound 1071],> 45 µM,0.00303 µM,–
CC(C)(C)OC(=O)N1CCC(c2noc(-c3ccc4cnn(C5COC5)c4c3)n2)CC1 [Compound 643],–,–,IC50 (SCD1; [1]): > 45 µM; IC50 (SCD5; [2]): 0.01 µM
CC(C)(C)OC(=O)N1CCC(/C(N)=N/OC(=O)c2ccc3cnn(C4COC4)c3c2)CC1 [Compound 1134],> 45 µM,0.0269 µM,–
COC(=O)N1CCC(c2noc(-c3cc(F)c4cnn(C5COC5)c4c3)n2)CC1 [Compound 875],> 45 µM,0.02 µM,–
CC(C)C(=O)N1CCC(c2nc(-c3ccc(N4CCOCC4)cc3)no2)CC1 [Compound 1165],> 45 µM,> 45 µM,–
COC(=O)N1CCC(c2nc(-c3ccc4cnn(C5CNC5)c4c3)no2)CC1 [Compound 950],> 45 µM,> 45 µM,–
CC(C)(C)OC(=O)N1CCC(c2nc(-c3ccc4cnn(C5CCCOC5)c4c3)no2)CC1 (centres unmarked) [Compound 720],–,–,IC50 (SCD1; [1]): > 45 µM; IC50 (SCD5; [2]): 1.97 µM
CO[C@H]1C[C@H](n2ncc3ccc(-c4noc(C5CCN(C(=O)OC(C)(C)C)CC5)n4)cc32)C1 [Compound 859],> 45 µM,> 4 µM,–
O=C(c1ncccc1Cl)N1CCC(c2noc(-c3ccc4cnn(C5COC5)c4c3)n2)CC1 [Compound 695],–,–,IC50 (SCD1; [1]): > 45 µM; IC50 (SCD5; [2]): 2.39 µM
CC(C)C(=O)N1CCC(c2noc(N3CCc4nn(C5COC5)cc4C3)n2)CC1 [Compound 1195],> 45 µM,> 45 µM,–
COC(=O)N1CCC(c2noc(-c3ccc4cn(C5CCN(C)C5=O)nc4c3)n2)CC1 (centres unmarked) [Compound 1102],> 45 µM,> 45 µM,–
CC(C)(C)C(=O)N1CC2(CC(c3noc(-c4ccc5cnn(C6COC6)c5c4)n3)C2)C1 [Compound 1033],> 45 µM,3.91 µM,–
O=C(C1CC1)N1CCC(c2noc(-c3ccc4oc(=O)n(C5COC5)c4c3)n2)CC1 [Compound 1135],> 45 µM,0.188 µM,–
CC(C)(C)OC(=O)N1CCC(c2cc(-c3cc4c(cn3)cnn4C3COC3)on2)CC1 [Compound 1107],> 45 µM,0.01 µM,–
CC(C)C(=O)N1CCC(c2noc(-c3ccnc(-c4ccn(C)n4)c3)n2)CC1 [Compound 1184],> 45 µM,> 45 µM,–
CC(C)n1ncc2ccc(-c3noc(C4CCN(C(=O)c5ccc(Cl)cc5)CC4)n3)cc21 [Compound 363],–,–,SCD1 % Max Inhibition (SCD1; [3]): 64.44%; IC50 (SCD5; [4]): > 45 µM; SCD5 % Max Inhibition (SCD5; [4]): 1.99%
CN(c1cc(-c2nc(C3CCN(C(=O)C4CC4)CC3)no2)ccn1)C1COC1 [Compound 1125],> 45 µM,0.523 µM,–
COC(=O)N1CCC(c2noc(-c3cccc(N4CCOCC4)c3)n2)CC1 [Compound 983],> 45 µM,1.51 µM,–

Structure (SMILES),"IC50 (SCD1; humanized yeast strain, 40 h)","IC50 (SCD5; humanized yeast strain, 40 h)",further results
CC(C)n1ncc2ccc(-c3nc(C4CCN(C(=O)c5sccc5Cl)CC4)no3)cc21 [Compound 715],–,–,IC50 (SCD1; [1]): > 45 µM; IC50 (SCD5; [2]): 0.048 µM
CC(C)n1ncc2ccc(-c3noc(C4CCN(C(=O)C56CC(C(F)(F)F)(C5)C6)CC4)n3)cc21 [Compound 757],> 45 µM,4.95 µM,–
CC(C)N1C(=O)Cc2ccc(-c3noc(C4CCN(C(=O)OC5(C)CC5)CC4)n3)cc21 [Compound 610],–,–,IC50 (SCD1; [1]): > 45 µM; IC50 (SCD5; [2]): 2.16 µM
CC(C)n1ncc2ccc(-c3noc(C4CCN(C(=O)CN(C)C)CC4)n3)cc21 [Compound 686],–,–,IC50 (SCD1; [1]): > 45 µM; IC50 (SCD5; [2]): > 45 µM
COC(=O)N1CCC(c2noc(-c3ccc4cnn(C(C)C)c4c3)n2)CC1 [Compound 629],–,–,IC50 (SCD1; [1]): > 45 µM; IC50 (SCD5; [2]): 0.03 µM
COC(=O)N1CCC(c2noc(-c3ccnc(C4CCCO4)c3)n2)CC1 (centres unmarked) [Compound 973],> 45 µM,> 45 µM,–
CC(C)(C)OC(=O)N1CC=C(c2nsc(-c3ccc4cnn(C5COC5)c4c3)n2)CC1 [Compound 790],> 45 µM,0.053 µM,–
C[C@@H]1C[C@@H](c2noc(-c3ccc4cnn(C5COC5)c4c3)n2)CCN1C(=O)OC(C)(C)C [Compound 1019],12.2 µM,0.01 µM,–
C=C(C)c1ncn2ccc(-c3noc(C4CCN(C(=O)OC(C)(C)C)CC4)n3)cc12 [Compound 855],> 45 µM,> 45 µM,–
CC(C)n1ncc2ccc(-c3noc(C4CCN(C(=O)CNC(=O)c5ccc(F)cc5)CC4(F)F)n3)cc21 (centres unmarked) [Compound 520],–,–,IC50 (SCD1; [3]): > 45 µM; IC50 (SCD5; [4]): > 45 µM
CC(C)(C)CC(=O)N1CC(c2nc(-c3ccc4cnn(C5COC5)c4c3)no2)C1 [Compound 707],–,–,IC50 (SCD1; [1]): > 45 µM; IC50 (SCD5; [2]): 14.5 µM
COC(=O)N1CCC(c2noc(-c3ccc4cnn(C5CCC(F)(F)C5)c4c3)n2)CC1 (centres unmarked) [Compound 1078],> 45 µM,0.033 µM,–
COC(=O)N1CCN(c2nc(-c3ccc4cnn(C5CCOC5)c4c3)no2)CC1 (centres unmarked) [Compound 803],12.9 µM,0.679 µM,–
COC(=O)N1CCN(c2noc(-c3ccnc(NC4COC4)c3)n2)CC1 [Compound 947],> 45 µM,> 45 µM,–
COCC(C)(C)n1ncc2ccc(-c3noc(N4CCN(C(=O)OC(C)(C)C)CC4)n3)cc21 [Compound 788],> 45 µM,6.22 µM,–
O=C(C1CCC1)N1CCN(c2noc(-c3ccnc(NC4COC4)c3)n2)CC1 [Compound 1001],> 45 µM,15.6 µM,–
COCC(COC)n1ncc2ccc(-c3nc(C4CCN(C(=O)OC)CC4)no3)cc21 [Compound 840],> 45 µM,20.7 µM,–
O=C(c1nccs1)N1CCN(c2nc(-c3ccc4cnn(C5COC5)c4c3)no2)CC1 [Compound 740],–,–,IC50 (SCD1; [1]): > 45 µM; IC50 (SCD5; [2]): 1.43 µM
CC(C)C(=O)N1CCN(c2noc(-c3ccnc(NC4COC4)c3)n2)CC1 [Compound 1133],> 45 µM,> 45 µM,–

Structure (SMILES),"IC50 (SCD1; humanized yeast strain, 40 h)","IC50 (SCD5; humanized yeast strain, 40 h)",further results
CC(C)n1ncc2ccc(-c3noc(C4CCN(C(C)C(F)(F)F)CC4)n3)cc21 (centres unmarked) [Compound 1051],> 45 µM,7.5 µM,–
COC(=O)N1CCC(c2noc(-c3ccc4cnn(C5CCN(C)C5=O)c4c3)n2)CC1 (centres unmarked) [Compound 1101],27.2 µM,16.6 µM,–
COC(=O)N1CCC(c2noc(-c3ccc4cn(C5COC(C)(C)C5)nc4c3)n2)CC1 (centres unmarked) [Compound 1095],> 45 µM,11.1 µM,–
O=C(N1CCC(c2noc(-c3ccc4cnn(C5COC5)c4c3)n2)CC1)C1(F)CC1 [Compound 952],15.6 µM,9.22 µM,–
O=C(c1ccccc1)N1CCN(c2noc(-c3ccc4cnn(C5COC5)c4c3)n2)CC1 [Compound 712],–,–,IC50 (SCD1; [1]): > 45 µM; IC50 (SCD5; [2]): 0.016 µM
CC(C)(C)CCC(=O)N1CC(c2nc(-c3ccc4cnn(C5COC5)c4c3)no2)C1 [Compound 749],> 45 µM,20.8 µM,–
CCOCC1CCN(c2nc(-c3ccc4cnn(C(C)C)c4c3)no2)CC1 [Compound 614],–,–,IC50 (SCD1; [1]): > 45 µM; IC50 (SCD5; [2]): 13.9 µM
CCC(=O)N1CCC(c2noc(-c3ccccc3N3CCOCC3)n2)CC1 [Compound 1168],> 45 µM,> 45 µM,–
O=C(C1CCC1)N1CCC(c2noc(-c3ccc4oc(=O)n(C5COC5)c4c3)n2)CC1 [Compound 1127],> 45 µM,1.47 µM,–
CC(C)n1ncc2ccc(-c3cc(C4CCN(C(=O)OC(C)(C)C)CC4)on3)nc21 [Compound 835],> 45 µM,> 45 µM,–
CC(C)n1ncc2ccc(-c3noc(C4CCN(C(=O)CNC(=O)c5ccc(Cl)cc5)CC4(F)F)n3)cc21 (centres unmarked) [Compound 521],–,–,IC50 (SCD1; [3]): > 45 µM; IC50 (SCD5; [4]): 8.79 µM
Clc1cnc2n1CCN(c1noc(-c3ccc4cnn(C5COC5)c4c3)n1)C2 [Compound 896],> 45 µM,0.01 µM,–
O=S(=O)(C1CCC1)N1CCC(c2noc(-c3ccc4cnn(C5COC5)c4c3)n2)CC1 [Compound 969],> 45 µM,1.42 µM,–
COC(=O)N1CCC(c2noc(-c3ccnc(-c4cnn(C)c4)c3)n2)CC1 [Compound 1265],–,–,"IC50 (SCD1; yeast strain expressing human SCD1 as sole desaturase, Table 8): 13.5 µM; IC50 (SCD5; yeast strain expressing human SCD5 as sole desaturase, Table 8): 11 µM"
CC1(OC(=O)N2CCC(c3noc(N4CCc5c(cnn5C5COC5)C4)n3)CC2)CC1 [Compound 1193],> 45 µM,> 45 µM,–
Cc1nn(C)c2cc(-c3noc(C4CCN(C(=O)[C@@H]5CC(=O)N(c6cccc(C#N)c6)C5)CC4(F)F)n3)ccc12 (some centres unmarked) [Compound 648],–,–,IC50 (SCD1; [1]): > 45 µM; IC50 (SCD5; [2]): > 45 µM
Cc1nn(C)c2cc(-c3nc(C4CCN(C(=O)C(C)C)CC4)no3)ccc12 [Compound 938],> 45 µM,> 45 µM,–
COC(=O)N1CCC(c2noc(-c3ccc4cnn(C(CO)CO)c4c3)n2)CC1 [Compound 834],> 45 µM,> 45 µM,–
